This experiment addresses Xanthine dehydrogenase/oxidase (Homo sapiens, UniProt P47989). Briefly: Inhibitory activity against Xanthine Oxidase.

Structures are written as SMILES.

Usually Ki stands for a measure of affinity in units of concentration, obtained from inhibition or displacement. Low readings indicate higher affinity, high ones lower affinity.

Sequence of Xanthine dehydrogenase/oxidase (P47989 whole entry): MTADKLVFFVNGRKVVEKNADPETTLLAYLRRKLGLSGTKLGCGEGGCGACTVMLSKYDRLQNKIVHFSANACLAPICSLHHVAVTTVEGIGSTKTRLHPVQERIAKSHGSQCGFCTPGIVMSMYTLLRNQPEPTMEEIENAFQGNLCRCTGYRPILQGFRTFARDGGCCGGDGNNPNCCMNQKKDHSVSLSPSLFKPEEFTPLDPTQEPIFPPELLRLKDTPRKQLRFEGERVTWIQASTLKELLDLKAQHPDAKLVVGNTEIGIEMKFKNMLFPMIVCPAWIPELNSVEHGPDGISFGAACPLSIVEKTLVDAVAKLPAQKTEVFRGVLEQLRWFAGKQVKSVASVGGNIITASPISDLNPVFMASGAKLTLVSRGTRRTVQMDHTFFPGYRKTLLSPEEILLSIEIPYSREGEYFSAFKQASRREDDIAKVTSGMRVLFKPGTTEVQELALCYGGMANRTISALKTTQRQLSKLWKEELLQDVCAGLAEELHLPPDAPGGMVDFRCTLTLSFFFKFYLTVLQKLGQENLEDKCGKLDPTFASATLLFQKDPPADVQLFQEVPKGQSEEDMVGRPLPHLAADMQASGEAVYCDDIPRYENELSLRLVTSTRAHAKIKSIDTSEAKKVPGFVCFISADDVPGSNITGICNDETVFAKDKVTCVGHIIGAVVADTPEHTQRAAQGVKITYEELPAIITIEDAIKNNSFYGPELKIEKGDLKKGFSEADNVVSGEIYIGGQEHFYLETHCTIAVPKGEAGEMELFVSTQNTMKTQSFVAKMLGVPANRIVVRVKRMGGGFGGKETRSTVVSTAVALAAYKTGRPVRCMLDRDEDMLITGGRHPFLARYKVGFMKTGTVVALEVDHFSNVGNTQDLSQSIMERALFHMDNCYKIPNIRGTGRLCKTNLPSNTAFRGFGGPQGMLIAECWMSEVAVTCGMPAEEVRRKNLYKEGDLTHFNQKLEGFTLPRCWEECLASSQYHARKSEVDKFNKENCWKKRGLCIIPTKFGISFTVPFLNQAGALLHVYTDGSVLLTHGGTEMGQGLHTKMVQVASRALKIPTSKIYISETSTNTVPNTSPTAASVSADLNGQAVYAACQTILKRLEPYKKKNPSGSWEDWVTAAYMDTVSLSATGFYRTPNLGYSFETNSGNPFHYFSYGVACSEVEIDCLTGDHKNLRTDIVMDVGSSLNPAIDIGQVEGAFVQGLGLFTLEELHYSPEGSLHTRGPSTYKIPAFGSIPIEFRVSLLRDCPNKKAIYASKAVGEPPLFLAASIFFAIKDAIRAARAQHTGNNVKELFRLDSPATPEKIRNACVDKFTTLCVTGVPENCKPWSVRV

For the compound `CC1CSc2nc3[nH]c(=O)[nH]c3c(=O)n2C1` (configuration not stated) [2-Hydroxy-7-methyl-7,8-dihydro-3H,6H-5-thia-1,3,4,8a-tetraaza-cyclopenta[b]naphthalen-9-one], the Ki was > 100 µM.
In the case of `CC1CSc2nc3[nH]c(=S)[nH]c3c(=O)n2C1` (configuration not stated) [2-Mercapto-7-methyl-7,8-dihydro-3H,6H-5-thia-1,3,4,8a-tetraaza-cyclopenta[b]naphthalen-9-one] it was > 100 µM.

Source of the values: BindingDB's records for doi:10.1021/jm950876u (Universit&#224, 1996).
